Measured values published in EP4793271A1, “NEUROPROTECTIVE AGENT” (National Center of Neurology and Psychiatry, priority 2023, dated 2025).

What was measured:
[1] = molecular target: T1, nicotinamide phosphoribosyl transferase (NAMPT) (Homo sapiens, UniProt P43490); assay: NAMPT activity measurement (NMN fluorescence detection); format: biochemical; conditions: NAMPT recombinant protein, 10 µM Nam; for IC50: read-out: Evaluation on NAMPT inhibitory
T1 construct: purchased Medical & Biological Laboratories Co., Ltd. (MBL)
T1 sequence (P43490 whole entry, species assumed): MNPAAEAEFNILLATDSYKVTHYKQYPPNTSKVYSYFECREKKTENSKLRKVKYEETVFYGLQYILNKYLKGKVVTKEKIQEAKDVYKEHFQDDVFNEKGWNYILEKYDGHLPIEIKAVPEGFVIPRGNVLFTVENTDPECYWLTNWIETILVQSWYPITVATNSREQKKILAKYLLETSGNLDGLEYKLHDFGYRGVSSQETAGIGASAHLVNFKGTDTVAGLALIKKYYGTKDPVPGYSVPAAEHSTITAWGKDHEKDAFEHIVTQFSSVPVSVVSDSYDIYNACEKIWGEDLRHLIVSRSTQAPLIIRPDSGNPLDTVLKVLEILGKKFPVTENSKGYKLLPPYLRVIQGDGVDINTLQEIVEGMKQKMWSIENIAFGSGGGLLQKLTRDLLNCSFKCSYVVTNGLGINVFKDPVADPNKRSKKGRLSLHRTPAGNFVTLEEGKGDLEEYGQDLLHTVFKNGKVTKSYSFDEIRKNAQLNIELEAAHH
Description: The compound of the present invention was evaluated for the ability to influence the activity of nicotinamide phosphoribosyl transferase (NAMPT) which is an enzyme that metabolizes nicotinamide (Nam), not the target SARM1.
The enzymatic reaction of NAMPT was carried out by adding NAMPT recombinant protein (manufactured by Medical & Biological Laboratories Co., Ltd. (MBL)) to a reaction solution containing the substrate Nam, phosphoribosylpyrophosphate (PRPP), ATP, and the like (composition: […] (pH = 7.4), 2 µM ATP, 0.5 µM PRPP, 0.02% BSA, 2 µM DTT, 1.2 µM MgCl2, and 10 µM Nam). The amount of the reaction product NMN was detected by detecting the fluorescent signal of a fluorescent substance obtained through the reaction of 2-acetylbenzofuran with NMN using SpectraMax M2 (Molecular Devices) (excitation: 421 nm, fluorescence: 480 nm) (Moriya et al, Chemical Communications 2013, 49 11500). The test compound was added at final concentrations of 10 µM, 3 µM, 1 µM, 300 nM, 100 nM, 30 nM, 10 nM, and 3 nM to the NMN synthesis reaction system described above. The NMN-derived fluorescent signal was normalized against a control group and plotted as the function of the test compound concentrations, and the compound was evaluated for its NAMPT inhibitory effect by calculating IC50.
The IC50 value was evaluated as ∘ for ≥1 µM and as Δ for ≥0.1 µM.

[2] = test system: primary cultured cells of mouse fetus-derived dorsal root ganglia (DRGs); assay: Suppression of axonal degeneration after axotomy in DRG explant culture; format: cell-based; conditions: minimum concentration at which axonal degeneration was suppressed (DI 0.3 or less), 24 hours after axotomy; for minimal effective concentration: Mus musculus, read-out: Evaluation on protection against degeneration
Description: The compound of the present invention was studied for its protective effect against axonal injury using primary cultured cells of mouse fetus-derived dorsal root ganglia (DRGs).
DRGs were collected from a fetus derived from an ICR mouse (13.5 days of pregnancy). DRGs were cultured using a plate coated by incubation with 0.1 mg/mL poly-L-lysine at 4°C for 24 hours or longer, washing with PBS, and then incubation with 2.5 µg/mL Cultrex Mouse Laminin I at 37°C for 4 to 6 hours.
One of DRGs collected was plated to each well of the coated 24-well plate. The DRG was cultured in a nicotinamide-free medium for neuron (supplemented with 10% FBS, 1 mM glutamine, 50 ng/mL NGF2.5S, and penicillin-streptomycin) for 24 hours at maximum from the start of culture and then cultured in a nicotinamide-free medium for neuron (supplemented with 2% MACS NeuroBrew-21, 50 ng/mL NGF2.5S, 1% Glutamax, 20 µM uridine, 20 µM 5-fluoro-2'-deoxyuridine, and penicillin-streptomycin) for 7 to 8 days.
The nicotinamide-free medium for neuron was prepared so as to have the same constituents as those of the composition published in a previously reported paper (Brewer et al., J. Neuroscience Research 35: 567-576) except for nicotinamide with reference to this composition.
The test compound is dissolved in DMSO and added to cells such that the final concentration of DMSO is 0.1% (1000-fold dilution). 10 mM, 1 mM, 100 µM, 10 µM, 1 µM, and 100 nM samples of the test compound are prepared and added at a 1000-fold dilution to cells.
Axotomy was carried out by scooping out a cell body portion of the cultured DRG with a chip for a micropipette. The test compound was added at the following concentrations (final concentration: 10 µM, 1 µM, 100 nM, 10 nM, 1 nM, and 100 pM) within 30 minutes after axotomy. The compound was evaluated for its protective effect against axonal degeneration by imaging (Leica DMIL microscope, 20× objective lens) the state of neurites 24 hours after axotomy and evaluating the degree of degeneration. The degree of degeneration was quantified using a program uniquely developed using the R language. A degeneration index (DI) was used as an indicator for the degree of degeneration, and the ratio of the area of a fragmented axon to the total area of axons was calculated as defined in the equation of Expression 2. Suppressed axonal degeneration was evaluated when the value of DI was 0.3 or less. The minimum concentration at which axonal degeneration was suppressed was determined for each compound. Degeneratioin index (DI) = (Degenerated axons)/(All axons) [formula]
The axonal protective activity was evaluated as A ≤ 0.01 µM, 0.01 µM < B ≤ 0.1 µM, and 0.1 µM < C ≤ 1 µM depending on the minimum concentration at which axonal degeneration was suppressed.

hSARM1 = molecular target: T2, hSARM1 (Homo sapiens, UniProt Q6SZW1); assay: Human SARM1 activity measurement in HEK293 cells transiently transfected with ΔN-hSARM1 (PC6 fluorescent probe); format: cell-based; design: expressed in transfected cells; host or cells: HEK293, pcDNA3 expression vector; conditions: inhibition rate; compound 30 µM; PC6 50 µM; HEK293 cells expressing ΔN-hSARM1; approximately 48 hours from transfection; read-out: Evaluation on hSARM1 inhibitory
T2 sequence (Q6SZW1 28-724): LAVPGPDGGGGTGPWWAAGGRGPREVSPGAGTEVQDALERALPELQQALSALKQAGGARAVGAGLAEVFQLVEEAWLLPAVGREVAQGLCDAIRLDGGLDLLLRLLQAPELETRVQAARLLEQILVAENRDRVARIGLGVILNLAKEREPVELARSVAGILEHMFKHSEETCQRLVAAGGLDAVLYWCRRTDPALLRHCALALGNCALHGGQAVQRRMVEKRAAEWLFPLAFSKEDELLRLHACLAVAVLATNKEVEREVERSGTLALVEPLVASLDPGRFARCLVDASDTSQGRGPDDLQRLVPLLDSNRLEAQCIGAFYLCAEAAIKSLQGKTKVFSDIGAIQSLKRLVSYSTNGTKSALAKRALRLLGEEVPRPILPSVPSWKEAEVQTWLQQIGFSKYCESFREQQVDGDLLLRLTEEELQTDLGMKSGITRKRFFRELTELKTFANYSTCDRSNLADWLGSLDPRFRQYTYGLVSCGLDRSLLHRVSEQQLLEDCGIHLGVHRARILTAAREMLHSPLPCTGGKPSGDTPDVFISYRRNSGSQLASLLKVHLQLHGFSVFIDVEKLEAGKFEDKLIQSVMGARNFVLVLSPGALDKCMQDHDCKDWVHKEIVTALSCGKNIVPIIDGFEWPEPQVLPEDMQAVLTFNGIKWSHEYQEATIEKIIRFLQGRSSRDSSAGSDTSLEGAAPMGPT
Description: HEK293 cells cultured in a prepared medium of nicotinamide-free DMEM (Dulbecco's modified Eagle medium) supplemented with 10% FBS (BioSera), a 1% penicillin-streptomycin solution (FUJIFILM Wako Pure Chemical Corp.), 5 μM nicotinamide were inoculated at approximately 50,000 cells/well to a 96-well microplate, and the cells were cultured at 37°C under 5% CO2, transiently transfected on the next day with a pcDNA3 expression vector containing a DNA sequence (SEQ ID NO: 1) deficient in a mitochondrial targeting sequence encoded by an N-terminal 78-base sequence in cDNA encoding human sterile α- and armadillo-motif-containing protein (hSARM1) using PEI MAX(R) reagent (PolySciences Inc.), and forced to express ΔN-hSARM1 (SEQ ID NO: 2). Approximately 8 hours later, PC6, which reacts as a substrate of SARM1-specific base exchange reaction and functions as a fluorescent probe, was added thereto at a final concentration of 50 μM, and intracellular hSARM1 activity was measured (Li et al, eLife 2021 10: e67381). A compound for inhibitory activity evaluation was added at a final concentration of 30 μM at the same time with PC6, while dimethyl sulfoxide (Nacalai Tesque Inc.) was added to samples of a control group at the same time with PC6. The cells were incubated at 37°C under 5% CO2 for approximately 48 hours from transfection, followed by fluorescent signal measurement using SpectraMax M2 (Molecular Devices) (excitation: 405 nm, fluorescence: 525 nm, fluorescence cutoff: 515 nm). Results of this screening are reported as an inhibition rate (%) relative to a negative control defined as follows by using fluorescence intensity measured from a control group without transfection with ΔN-hSARM1 as a background whereas using fluorescence intensity measured from a control group transfected with ΔN-hSARM1 as the negative control. Inhibitory rate (%) = 100-(([…]-Background))/((Signalofthenegativecontrol-Background)) × 100 [formula] The nicotinamide-free medium was prepared so as to have the same composition as that of DMEM having known composition which is generally used in the art except for nicotinamide. […]

| SMILES | Evaluation on NAMPT inhibitory [1] | minimal effective concentration [2] [µM] | inhibition at 30 µM (hSARM1) [%] | Evaluation on protection against degeneration [2] | IC50 [1] [nM] |
| --- | --- | --- | --- | --- | --- |
| O=C(NCc1ccc(NC(=O)c2ccccc2)c(Cl)c1)c1cccnc1 [Compound 111] | ○ | ≤ 0.01 | > 10 | – | – |
| O=C(NCc1ccc(NC(=O)c2cccnc2)c(Cl)c1)c1cccnc1 [Compound 112] | ○ | – | > 10 | B (0.01 µM < B ≤ 0.1 µM) | – |
| O=C(NCc1ccc(NC(=O)C2CCCCC2)nc1)c1cccnc1 [Compound 113] | ○ | ≤ 0.01 | > 75 | – | – |
| O=C(NCc1ccc(NC(=O)C2CCOCC2)nc1)c1cccnc1 [Compound 114] | ○ | ≤ 0.01 | > 75 | – | – |
| O=C(CCc1ccccc1)Nc1ccc(CNC(=O)c2cccnc2)cn1 [Compound 115] | ○ | ≤ 0.01 | > 75 | – | – |
| O=C(NCc1ccc(NC(=O)c2cccc(F)c2)nc1)c1cccnc1 [Compound 116] | ○ | ≤ 0.01 | > 75 | – | – |
| O=C(NCc1ccc(NC(=O)c2cccc3ccccc23)nc1)c1cccnc1 [Compound 121] | – | 0.01 to 0.1 | – | – | ≥ 100 |
| NCc1cccc(CNC(=O)c2cccnc2)n1 [Compound 148] | ○ | 0.1 to 1 | – | – | – |
| O=C(NCc1cccc(CNC(=O)c2cc(F)cc(F)c2)n1)c1cccnc1 [Compound 152] | ○ | – | > 25 | – | – |
| CN(C)c1ccc(/C=C/C(=O)Nc2ccc(CNC(=O)c3cccnc3)cn2)cc1 [Compound 181] | – | ≤ 0.01 | – | – | ≥ 100 |
| O=C(NCCCCCC1CCN(CCO)CC1)c1cccnc1 [compound 2] | – | ≤ 0.01 | – | – | ≥ 100 |
| O=C(NCCCCCCCCOCCOc1ccc([N+](=O)[O-])c2nonc12)c1cccnc1 [compound 5] | – | ≤ 0.01 | – | – | ≥ 100 |
| O=C(NCCN(CCNC(=O)c1cccnc1)C(=O)c1cccnc1)c1cccnc1 [compound 36] | ○ | – | > 10 | – | – |
| COC(=O)C(CCCCNC(=O)c1cccnc1)NC(=O)c1cccnc1 (stereo not shown) [compound 44] | ○ | – | – | – | – |
| O=C(NCCCCC(NC(=O)c1cccnc1)C(=O)O)c1cccnc1 (stereo not shown) [compound 45] | ○ | – | – | – | – |
| NC(=O)C(CCCCNC(=O)c1cccnc1)NC(=O)c1cccnc1 (stereo not shown) [compound 46] | ○ | – | – | – | – |
| CCNC(=O)C(CCCCNC(=O)c1cccnc1)NC(=O)c1cccnc1 (stereo not shown) [compound 47] | ○ | – | – | – | – |
| COC(=O)C(CCCNC(=O)c1cccnc1)NC(=O)c1cccnc1 (stereo not shown) [compound 48] | ○ | 0.1 to 1 | – | – | – |
| O=C(NCCCC(NC(=O)c1cccnc1)C(=O)O)c1cccnc1 (stereo not shown) [compound 49] | ○ | – | – | – | – |
| NC(=O)C(CCCNC(=O)c1cccnc1)NC(=O)c1cccnc1 (stereo not shown) [compound 50] | ○ | – | – | – | – |
| CCNC(=O)C(CCCNC(=O)c1cccnc1)NC(=O)c1cccnc1 (stereo not shown) [compound 51] | ○ | – | – | – | – |
| O=C(/C=C/c1cccnc1)NCc1ccccc1NC(=O)/C=C/c1cccnc1 [compound 60] | ○ | – | > 10 | – | – |
| O=C(NCc1ccc(NS(=O)(=O)c2ccccc2)nc1)c1cccnc1 [compound 79] | ○ | – | > 10 | – | – |
| [N-]=[N+]=NCc1cccc(CNC(=O)c2cccnc2)n1 [compound 90] | ○ | – | > 10 | – | – |
| O=C(NCc1cccc(CN2Cc3ccccc3C2=O)n1)c1cccnc1 [compound 92] | ○ | – | > 10 | – | – |
| O=C(Nc1ccccc1CCc1ccccc1NC(=O)c1cccnc1)c1cccnc1 [compound 100] | ○ | 0.01 to 0.1 | – | – | – |
| CN(CCCCCCN(C)C(=O)c1cccnc1)C(=O)c1cccnc1 [compound 102] | ○ | ≤ 0.01 | – | – | – |
| NCCOCCOCCNC(=O)c1cccnc1 [compound 107] | ○ | ≤ 0.01 | – | – | – |
